Where a SMILES comes first, the peptide text is derived from it. [ ]: non-standard residue; d: D form. pGlu = O=C1CC[C@@H](C(=O)O)N1
Test system: diet-induced obese male mice
Experiment: 3-day food intake and body weight under daily dosing
Format: in vivo, mouse
Conditions: for Food Intake: 50 mg/kg
Protocol: Fig. 5 Functional studies of […] in feeding and energy balance in mice. a Schematic of the primary amino acid sequence for full-length mouse GDF15 preproprotein and annotation of CAP-GDF15 sequence as well as the canonical GDF15 hormone sequence. b–d Food intake (b), respiratory exchange ratio (RER, c), and ambulatory activity (d) of 12–16-week diet-induced obese male mice following a single treatment of CAP-GDF15 (50 mg/kg, intraperitoneal) or vehicle control. e–g Food intake (e), RER (f), and ambulatory activity (g) of 12–16-week diet-induced obese male mice following a single treatment of scrambled CAP-GDF15 (50 mg/kg, intraperitoneal, scrambled sequence: pGlu-[…]-NH2) or vehicle control. h, i 3-day food intake (h) and body weight (i) of 12–16-week diet-induced obese male mice following treatment with CAP-GDF15 or scrambled CAP-GDF15 (50 mg/kg/day, IP), or vehicle control. Data are shown as means ± SEM. b–d, N = 12 mice/group; for e, f N = 8 mice/group; for h N = 7 food cages for vehicle and CAP-GDF15 groups and N = 5 for the scrambled peptide group; for i N = 14 mice for the vehicle group, N = 13 for the CAP-GDF15 group, and N = 5 for the scrambled peptide group. b–i injection occurred at time T = 0 (5:00 pm) and data were collected for the following 16 hrs. For (b-i), p values were calculated by two-way ANOVA. Source data are provided as a Source Data file.
Lastly, to determine whether the acute food intake suppressive effects of CAP-GDF15 would lead to long-term suppression of feeding and obesity, we administered CAP-GDF15 or scrambled CAP-GDF15 (50 mg/kg/day, IP), or vehicle control to diet-induced obese mice. Food intake and body weight were monitored over a three-day period. A durable suppression of food intake in CAP-GDF15-treated mice was over the three-day experiment (Vehicle, 7.3 ± 0.5 g/mouse; […], 4.1 ± 0.9 g/mouse/day, P < 0.05, Fig. 5h). Consequently, and as expected, an increasing reduction in body weight was also detected (Vehicle, +0.1 ± 0.3 g/mouse; CAP-GDF15, −1.9 ± 0.3 g/mouse, P < 0.001, Fig. 5i). Importantly, mice treated with the scrambled CAP-GDF15 peptide were indistinguishable in body weight or food intake from control mice (P > 0.05 versus vehicle-treated mice, Fig. 5h, i).
Animal experiments were performed according to a procedure approved by the Stanford University Administrative Panel on Laboratory Animal Care. Mice were maintained in 12-h light-dark cycles at 22 °C and about 50% relative humidity and fed a standard irradiated rodent diet. Where indicated, a high-fat diet (D12492, Research Diets 60% kcal from fat) was used. Male C57BL/6 J (stock number 000664) and male C57BL/6 J DIO mice were purchased from the Jackson Laboratory (stock number 380050). For studies in high-fat diet-fed mice, peptides were dissolved in 18:1:1 (by volume) of saline:Kolliphor EL (Sigma Aldrich):DMSO and administered to mice by intraperitoneal injections at a volume of 10 µl/g at the indicated doses for the indicated times. For lipopolysacchardide injection, LPS (Sigma, #L2880-10MG) was dissolved in saline and administered to mice at a volume of 5 µl/g at indicated dose. For fasting, food was removed from mice for 16 h. For running, a six-lane Columbus Instruments animal treadmill (product 1055-SRM-D65) was used with following 1 h protocol: 10 min at 6 m/min, 50 min at 18 m/min, and increase every 2 min by 2 m/min for the last 10 minutes, all at 12° incline. For all treatment experiments, mice were mock injected with the vehicle for 3–5 days until body weights were stabilized. Heparin plasma was harvested by submandibular bleed. For all experiments, mice were randomly assigned to treatment groups. Experimenters were not blinded to groups.

## CC(C)C[C@H](NC(=O)[C@@H]1CCC(=O)N1)C(=O)N[C@@H](CCC(=O)O)C(=O)N[C@@H](CC(C)C)C(=O)N[C@@H](CCCNC(=N)N)C(=O)N[C@@H](CC(C)C)C(=O)N[C@@H](CCCNC(=N)N)C(=O)N[C@H](C(=O)N[C@@H](C)C(=O)N[C@@H](C)C(=O)NCC(=O)N[C@@H](CCCNC(=N)N)C(N)=O)C(C)C [CAP-GDF15] ([pGlu]LELRLRVAAGR-NH2)
24 h, individual animal 1
  Food Intake: 0.5 g
24 h, individual animal 2
  Food Intake: 2.2 g
24 h, individual animal 3
  Food Intake: 1.3 g
24 h, individual animal 4
  Food Intake: 1.4 g
24 h, individual animal 5
  Food Intake: 0.3 g
24 h, individual animal 6
  Food Intake: 0.825 g
24 h, individual animal 7
  Food Intake: 0.525 g
48 h, individual animal 1
  Food Intake: 1.2 g
48 h, individual animal 2
  Food Intake: 5 g
48 h, individual animal 3
  Food Intake: 2.9 g
48 h, individual animal 4
  Food Intake: 4.1 g
48 h, individual animal 5
  Food Intake: 0.6 g
48 h, individual animal 6
  Food Intake: 1.8 g
48 h, individual animal 7
  Food Intake: 1.325 g
72 h, individual animal 1
  Food Intake: 2.9 g
72 h, individual animal 2
  Food Intake: 7.8 g
72 h, individual animal 3
  Food Intake: 4.9 g
72 h, individual animal 4
  Food Intake: 6.7 g
72 h, individual animal 5
  Food Intake: 0.8 g
72 h, individual animal 6
  Food Intake: 2.95 g
72 h, individual animal 7
  Food Intake: 2.775 g
50 mg/kg/day IP, diet-induced obese mice, mean ± SEM, N = 13 mice
  body weight change over three days: −1.9 ± 0.3 g/mouse

Source: publication PMC10709327, “A class of secreted mammalian peptides with potential to expand cell-cell communication” (Nature Communications, 2023)
